According to patent publication US20070248657A1, “Multi-compartment transdermal pain control device” (priority 2006, published 2007):
Read-outs that look alike come from different tables or passages of the source.

How the values were obtained:
[1] = human

O=C(c1ccccc1)c1ccc2n1CCC2C(=O)O (stereo not shown) [Ketorolac, ketorolac tromethamine]
Cumulative Flux ([1]; 0 h): 0 μg/cm^2 | Cumulative Flux ([1]; 3 h): 24 μg/cm^2 | Cumulative Flux ([1]; 6 h): 7 μg/cm^2 | Cumulative Flux ([1]; 9 h): 11 μg/cm^2 | Cumulative Flux ([1]; 24 h): 100 μg/cm^2 | Cumulative Flux ([1]; 48 h): 412 μg/cm^2 | Cumulative Flux ([1]; 72 h): 726 μg/cm^2 | flux through human cadaver epidermis (clinical significance) (pH 5.6): clinically significant | flux through human cadaver epidermis (clinical significance) (pH 7.3): decreased to a clinically insignificant level | flux through human cadaver epidermis (clinical significance) (pH 8.6): remains clinically insignificant

COc1ccc2c(c1)[C@]13CCCC[C@@H]1[C@H](C2)N(C)CC3 [Dextromethorphan, dextromethorphan]
flux through human cadaver epidermis (clinical significance) (human, pH 8.6): higher than at a pH of 7.3 | flux through human cadaver epidermis (clinical significance) (pH 5.6): clinically insignificant | flux through human cadaver epidermis (clinical significance) (pH 7.3): remains clinically insignificant
